Measured values: PubChem BioAssay AID248 (DTP/NCI, 2004)
Where “and” joins values, the source holds several entries; their conditions need not be identical. Identical values can stand only once. Inconclusive results and toxic doses are left out.

System: L1210 leukemia ip in BDF1 mice, survival T/C
Test: NCI In Vivo Anticancer Drug Screen. Data for tumor model L1210 Leukemia (intraperitoneal) in B6D2F1 (BDF1) mice
Conditions: endpoint: mean survival time, higher = longer survival
Description: The antitumor activity of compounds was measured in mice bearing transplantable tumors. Survival or tumor size were measured and the results are expressed as the measurement made in the treated group (T) divided by the measurement made in the vehicle treated control group (C). The tumor model used in this assay is L1210 Leukemia (intraperitoneal) in B6D2F1 (BDF1) mice

[1] = dose: 12.5 mg/kg/injection, schedule: Q01DX009 (ip), vehicle: saline with Tween-80
[2] = dose: 25.0 mg/kg/injection, schedule: Q01DX009 (ip), vehicle: saline with Tween-80

C/C=C\c1ccc(OCCOC(=O)Nc2ccc(Cl)cc2C(F)(F)F)c(OC)c1
T/C (dose: 100.0 mg/kg/injection, schedule: Q01DX009 (ip), vehicle: saline with Tween-80): 91 % of control
T/C (dose: 200.0 mg/kg/injection, schedule: Q01DX009 (ip), vehicle: saline with Tween-80): 96 % of control
T/C (dose: 400.0 mg/kg/injection, schedule: Q01DX009 (ip), vehicle: saline with Tween-80): 89 % of control

C[n+]1c(-c2ccccc2)c2cc(N)ccc2c2ccccc21
T/C (dose: 0.2 mg/kg/injection, schedule: Q01DX Z (ip), vehicle: methylcellulose (MC)): 108 % of control
T/C (dose: 0.3 mg/kg/injection, schedule: Q01DX Z (ip), vehicle: methylcellulose (MC)): 113 % of control
T/C (dose: 0.5 mg/kg/injection, schedule: Q01DX Z (ip), vehicle: methylcellulose (MC)): 102 % of control and 114 % of control
T/C (dose: 0.75 mg/kg/injection, schedule: Q01DX Z (ip), vehicle: methylcellulose (MC)): 111 % of control
T/C (dose: 1.0 mg/kg/injection, schedule: Q01DX Z (ip), vehicle: methylcellulose (MC)): 107 % of control and 120 % of control
T/C (dose: 1.5 mg/kg/injection, schedule: Q01DX Z (ip), vehicle: methylcellulose (MC)): 104 % of control
T/C (dose: 1.5 mg/kg/injection, schedule: Q01DX Z (ip), vehicle: saline): 111 % of control
T/C (dose: 2.0 mg/kg/injection, schedule: Q01DX Z (ip), vehicle: carboxymethylcellulose (CMC)): 106 % of control
T/C (dose: 2.0 mg/kg/injection, schedule: Q01DX Z (ip), vehicle: methylcellulose (MC)): 110 % of control and 113 % of control
T/C (dose: 3.0 mg/kg/injection, schedule: Q01DX Z (ip), vehicle: carboxymethylcellulose (CMC)): 112 % of control
T/C (dose: 3.0 mg/kg/injection, schedule: Q01DX Z (ip), vehicle: methylcellulose (MC)): 117 % of control
T/C (dose: 3.0 mg/kg/injection, schedule: Q01DX Z (ip), vehicle: saline): 117 % of control
T/C (dose: 4.0 mg/kg/injection, schedule: Q01DX Z (ip), vehicle: methylcellulose (MC)): 121 % of control
T/C (dose: 4.4 mg/kg/injection, schedule: Q01DX Z (ip), vehicle: carboxymethylcellulose (CMC)): 110 % of control
T/C (dose: 6.6 mg/kg/injection, schedule: Q01DX Z (ip), vehicle: carboxymethylcellulose (CMC)): 120 % of control
T/C (dose: 8.0 mg/kg/injection, schedule: Q01DX Z (ip), vehicle: methylcellulose (MC)): 121 % of control and 122 % of control
T/C (dose: 10.0 mg/kg/injection, schedule: Q01DX001 (ip), vehicle: saline): 100 % of control
T/C (dose: 20.0 mg/kg/injection, schedule: Q01DX001 (ip), vehicle: saline): 117 % of control
T/C (dose: 24.0 mg/kg/injection, schedule: Q01DX Z (ip), vehicle: saline): 112 % of control
T/C (dose: 40.0 mg/kg/injection, schedule: Q01DX001 (ip), vehicle: saline): 100 % of control

CC1(C)N=C(N)N=C(N)N1c1cc(Cl)cc(CCNC(=O)Nc2ccc(S(=O)(=O)F)cc2)c1
T/C (dose: 25.0 mg/kg/injection, schedule: Q01DX001 (ip), vehicle: saline with Tween-80): 98 % of control
T/C (dose: 50.0 mg/kg/injection, schedule: Q01DX001 (ip), vehicle: saline with Tween-80): 98 % of control
T/C (dose: 100.0 mg/kg/injection, schedule: Q01DX001 (ip), vehicle: saline with Tween-80): 106 % of control

COC(=O)/C=C(\C)Nc1ccc(NC(C)=O)cc1
T/C (dose: 25.0 mg/kg/injection, schedule: Q01DX009 (ip), vehicle: acetone): 101 % of control
T/C (dose: 50.0 mg/kg/injection, schedule: Q01DX009 (ip), vehicle: acetone): 101 % of control
T/C (dose: 100.0 mg/kg/injection, schedule: Q01DX009 (ip), vehicle: acetone): 94 % of control
T/C (dose: 100.0 mg/kg/injection, schedule: Q04DX003 (ip), vehicle: acetone): 94 % of control
T/C (dose: 200.0 mg/kg/injection, schedule: Q04DX003 (ip), vehicle: acetone): 96 % of control

COc1ccc2c(c1)Cc1cc(NC(=O)N(CCCl)N=O)ccc1-2
T/C (dose: 10.0 mg/kg/injection, schedule: Q01DX009 (ip), vehicle: saline): 151 % of control
T/C (dose: 20.0 mg/kg/injection, schedule: Q01DX009 (ip), vehicle: saline): 175 % of control
T/C (dose: 25.0 mg/kg/injection, schedule: Q01DX001 (ip), vehicle: other): 122 % of control
T/C (dose: 33.0 mg/kg/injection, schedule: Q01DX009 (ip), vehicle: carboxymethylcellulose (CMC)): 188 % of control
T/C (dose: 45.0 mg/kg/injection, schedule: Q01DX001 (ip), vehicle: other): 123 % of control
T/C (dose: 50.0 mg/kg/injection, schedule: Q01DX009 (ip), vehicle: carboxymethylcellulose (CMC)): 163 % of control
T/C (dose: 80.0 mg/kg/injection, schedule: Q01DX009 (ip), vehicle: other): 123 % of control
T/C (dose: 177.0 mg/kg/injection, schedule: Q01DX001 (ip), vehicle: carboxymethylcellulose (CMC)): 182 % of control
T/C (dose: 177.0 mg/kg/injection, schedule: Q01DX001 (ip), vehicle: other): 154 % of control
T/C (dose: 177.0 mg/kg/injection, schedule: Q01DX009 (ip), vehicle: carboxymethylcellulose (CMC)): 107 % of control
T/C (dose: 266.0 mg/kg/injection, schedule: Q01DX001 (ip), vehicle: carboxymethylcellulose (CMC)): 178 % of control
T/C (dose: 266.0 mg/kg/injection, schedule: Q01DX001 (ip), vehicle: other): 154 % of control
T/C (dose: 266.0 mg/kg/injection, schedule: Q01DX009 (ip), vehicle: carboxymethylcellulose (CMC)): 97 % of control
T/C (dose: 400.0 mg/kg/injection, schedule: Q01DX001 (ip), vehicle: carboxymethylcellulose (CMC)): 193 % of control
T/C (dose: 400.0 mg/kg/injection, schedule: Q01DX009 (ip), vehicle: carboxymethylcellulose (CMC)): 96 % of control
T/C (dose: 600.0 mg/kg/injection, schedule: Q01DX001 (ip), vehicle: carboxymethylcellulose (CMC)): 186 % of control

CCCCC(=O)NN
T/C [1]: 103 % of control
T/C (dose: 22.0 mg/kg/injection, schedule: Q01DX009 (ip), vehicle: saline with Tween-80): 110 % of control
T/C [2]: 111 % of control and 112 % of control
T/C (dose: 50.0 mg/kg/injection, schedule: Q01DX009 (ip), vehicle: saline with Tween-80): 100 % of control
T/C (dose: 60.0 mg/kg/injection, schedule: Q01DX009 (ip), vehicle: saline with Tween-80): 118 % of control

CN(CCN(C)C(=S)S)C(=S)S
T/C (dose: 100.0 mg/kg/injection, schedule: Q01DX002 (ip), vehicle: saline): 99 % of control
T/C (dose: 200.0 mg/kg/injection, schedule: Q01DX002 (ip), vehicle: saline): 99 % of control
T/C (dose: 400.0 mg/kg/injection, schedule: Q01DX002 (ip), vehicle: saline): 105 % of control

CCCCC(=O)N1C(C)CCC1C (configuration not stated)
T/C (dose: 100.0 mg/kg/injection, schedule: Q04DX002 (ip), vehicle: saline): 105 % of control
T/C (dose: 200.0 mg/kg/injection, schedule: Q04DX002 (ip), vehicle: saline): 88 % of control

O=C(Nc1cccc(C(F)(F)F)c1)Nc1ncccn1
T/C (dose: 50.0 mg/kg/injection, schedule: Q01DX009 (ip), vehicle: Klucel (hydroxypropylcellulose) (HPC)): 90 % of control
T/C (dose: 100.0 mg/kg/injection, schedule: Q01DX009 (ip), vehicle: Klucel (hydroxypropylcellulose) (HPC)): 94 % of control and 86 % of control
T/C (dose: 400.0 mg/kg/injection, schedule: Q01DX009 (ip), vehicle: Klucel (hydroxypropylcellulose) (HPC)): 89 % of control

Cc1ccc(S(=O)(=O)Nc2ccc(Cl)c(Cl)c2)cc1
T/C (dose: 100.0 mg/kg/injection, schedule: Q04DX003 (ip), vehicle: Klucel (hydroxypropylcellulose) (HPC)): 97 % of control
T/C (dose: 200.0 mg/kg/injection, schedule: Q04DX003 (ip), vehicle: Klucel (hydroxypropylcellulose) (HPC)): 96 % of control
T/C (dose: 400.0 mg/kg/injection, schedule: Q04DX003 (ip), vehicle: Klucel (hydroxypropylcellulose) (HPC)): 94 % of control

CC(C)c1ccccc1OS(=O)(=O)c1c(F)c(F)c(F)c(F)c1F
T/C (dose: 6.25 mg/kg/injection, schedule: Q01DX001 (ip), vehicle: Klucel (hydroxypropylcellulose) (HPC)): 103 % of control
T/C (dose: 6.25 mg/kg/injection, schedule: Q01DX009 (ip), vehicle: saline with Tween-80): 108 % of control
T/C (dose: 12.5 mg/kg/injection, schedule: Q01DX001 (ip), vehicle: Klucel (hydroxypropylcellulose) (HPC)): 97 % of control
T/C [1]: 101 % of control
T/C (dose: 25.0 mg/kg/injection, schedule: Q01DX001 (ip), vehicle: Klucel (hydroxypropylcellulose) (HPC)): 101 % of control
T/C [2]: 103 % of control

CCOC(=O)C(=NNc1cccc(Br)c1)C(=O)OCC
T/C (dose: 100.0 mg/kg/injection, schedule: Q01DX001 (ip), vehicle: saline): 98 % of control
T/C (dose: 200.0 mg/kg/injection, schedule: Q01DX001 (ip), vehicle: saline): 94 % of control
T/C (dose: 400.0 mg/kg/injection, schedule: Q01DX001 (ip), vehicle: saline): 96 % of control
